Experiment [1] addresses T1, Cysteine protease ATG4B (Homo sapiens, UniProt Q9Y4P1).
T1 sequence (Q9Y4P1 whole entry): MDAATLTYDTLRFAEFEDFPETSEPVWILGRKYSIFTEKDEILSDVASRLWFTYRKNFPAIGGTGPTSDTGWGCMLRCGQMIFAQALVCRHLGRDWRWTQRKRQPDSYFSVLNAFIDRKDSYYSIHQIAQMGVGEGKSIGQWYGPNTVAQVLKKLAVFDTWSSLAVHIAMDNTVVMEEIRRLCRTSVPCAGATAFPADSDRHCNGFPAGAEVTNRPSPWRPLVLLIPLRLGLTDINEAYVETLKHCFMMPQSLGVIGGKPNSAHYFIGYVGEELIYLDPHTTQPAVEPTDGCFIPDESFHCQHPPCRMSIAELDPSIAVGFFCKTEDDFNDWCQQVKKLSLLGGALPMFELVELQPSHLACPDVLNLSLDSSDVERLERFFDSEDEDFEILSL
It counts as functional.

For experiment [2], the target named is Phospholipase A2 (Homo sapiens, UniProt P04054). It counts as functional.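 Further: confirmatory dose-response counterscreen on phospholipase A2, testing hits that came from an ultra-high-throughput screen for ATG4B inhibitors.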
The target of experiment [3] is T2, Probable nicotinate-nucleotide adenylyltransferase (Staphylococcus aureus (strain N315), UniProt P65502). It counts as functional, Staphylococcus aureus subsp. aureus N315.
Experiment [4] concerns the target T2, Probable nicotinate-nucleotide adenylyltransferase. It counts as functional, Staphylococcus aureus subsp. aureus N315. As to conditions: read-out: IC50_Mean.
Experiment [5] has as its target T3, Calpain-2 catalytic subunit (Sus scrofa, UniProt P43367).
T3 sequence (P43367 whole entry): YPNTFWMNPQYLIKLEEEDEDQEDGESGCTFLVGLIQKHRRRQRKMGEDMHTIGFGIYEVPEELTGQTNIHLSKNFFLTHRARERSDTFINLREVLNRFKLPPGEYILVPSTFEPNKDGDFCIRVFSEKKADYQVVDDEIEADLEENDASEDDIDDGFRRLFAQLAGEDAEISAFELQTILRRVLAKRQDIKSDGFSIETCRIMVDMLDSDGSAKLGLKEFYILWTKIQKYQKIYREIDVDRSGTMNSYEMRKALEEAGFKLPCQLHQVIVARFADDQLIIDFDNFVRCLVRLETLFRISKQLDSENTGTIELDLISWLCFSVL
The experiment can be described thus: m-calpain protease blockers, concentration series – biochemical, fluorogenic peptide substrate, dose response (AID 1420). It counts as functional.

The target in experiment [6] is T4, Galanin receptor type 3 (Homo sapiens, UniProt O60755).
T4 sequence (O60755 whole entry): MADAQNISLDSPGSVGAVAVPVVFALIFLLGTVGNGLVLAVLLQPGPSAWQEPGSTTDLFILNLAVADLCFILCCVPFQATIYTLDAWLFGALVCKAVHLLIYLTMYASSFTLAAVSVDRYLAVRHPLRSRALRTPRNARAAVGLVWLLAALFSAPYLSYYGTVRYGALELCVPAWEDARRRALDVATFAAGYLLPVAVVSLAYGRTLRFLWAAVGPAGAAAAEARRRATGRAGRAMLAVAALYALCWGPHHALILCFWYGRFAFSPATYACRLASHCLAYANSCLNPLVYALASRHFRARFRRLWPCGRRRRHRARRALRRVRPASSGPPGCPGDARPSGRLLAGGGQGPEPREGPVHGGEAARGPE
The experiment can be described thus: Fluorescence-based cell-based primary high throughput dose response assay to identify antagonists of the Galanin Receptor 3 (GalR3). It counts as functional.

A short description of experiment [7]: cells. It counts as functional, cell-based. The following applies: HEK-CNG.
In experiment [8] the test system is Streptococcus sp. 'group A'. The experiment can be described thus: Streptococcus pyogenes SK(-)GAS viability under kanamycin – luminescence, BacTiterGlo, confirmation, counter-screen for streptokinase expression inhibitor project, dose response (AID 1900). It counts as functional, organism-based. A general note: A counterscreen serves to expose hits that act by an unwanted route or on another target.

Experiment [9] relates to Streptococcus. The experiment can be described thus: GAS UMAA2166 growth inhibition – luminescence, BacTiterGlo, counter-screen for streptokinase expression inhibitor project, dose response (AID 1915).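 Further: potency for reduction of bacterial viability or growth.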 It counts as functional, organism-based.
The target in experiment [10] is T5, DNA repair and recombination protein RAD54-like (Homo sapiens, UniProt Q92698).
T5 sequence (Q92698 whole entry): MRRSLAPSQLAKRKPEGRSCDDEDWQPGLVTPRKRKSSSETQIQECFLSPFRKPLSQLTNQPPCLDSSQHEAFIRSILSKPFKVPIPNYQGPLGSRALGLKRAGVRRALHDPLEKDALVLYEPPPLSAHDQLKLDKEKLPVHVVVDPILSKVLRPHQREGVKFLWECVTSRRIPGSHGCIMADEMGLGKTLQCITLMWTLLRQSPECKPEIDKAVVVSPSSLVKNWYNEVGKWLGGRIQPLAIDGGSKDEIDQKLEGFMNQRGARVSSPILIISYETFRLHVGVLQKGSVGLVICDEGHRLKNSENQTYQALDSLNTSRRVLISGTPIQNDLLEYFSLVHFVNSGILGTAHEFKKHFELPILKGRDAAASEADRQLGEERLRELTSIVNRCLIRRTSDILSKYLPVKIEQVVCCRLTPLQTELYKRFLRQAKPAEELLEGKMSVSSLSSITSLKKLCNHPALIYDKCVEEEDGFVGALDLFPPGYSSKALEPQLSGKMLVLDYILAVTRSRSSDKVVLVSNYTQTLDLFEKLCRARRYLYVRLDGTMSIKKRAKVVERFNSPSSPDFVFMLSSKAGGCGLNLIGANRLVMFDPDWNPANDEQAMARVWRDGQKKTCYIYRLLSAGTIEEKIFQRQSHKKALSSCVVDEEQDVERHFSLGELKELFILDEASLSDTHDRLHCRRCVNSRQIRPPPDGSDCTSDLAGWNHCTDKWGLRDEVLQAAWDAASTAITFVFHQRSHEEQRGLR
The experiment can be described thus: RAD54 Holliday junction migration blockers – biochemical, fluorescence, cherry-picked samples, dose series, confirmation (AID 651657). It counts as functional.

The target in experiment [11] is T6, DNA repair protein RAD52 homolog (Homo sapiens, UniProt P43351).
T6 sequence (P43351 whole entry): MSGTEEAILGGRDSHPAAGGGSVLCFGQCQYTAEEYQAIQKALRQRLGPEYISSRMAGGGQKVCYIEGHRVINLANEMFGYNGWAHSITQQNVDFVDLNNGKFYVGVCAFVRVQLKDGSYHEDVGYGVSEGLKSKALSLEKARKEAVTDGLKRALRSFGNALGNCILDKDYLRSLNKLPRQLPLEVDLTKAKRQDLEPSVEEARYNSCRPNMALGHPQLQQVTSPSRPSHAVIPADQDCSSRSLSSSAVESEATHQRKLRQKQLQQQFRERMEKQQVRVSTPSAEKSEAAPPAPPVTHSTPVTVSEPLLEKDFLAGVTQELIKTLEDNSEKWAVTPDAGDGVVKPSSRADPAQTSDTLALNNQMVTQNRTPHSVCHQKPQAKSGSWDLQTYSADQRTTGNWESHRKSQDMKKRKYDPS
It counts as functional, biochemical.

Experiment [12] deals with T7, Sentrin-specific protease 8 (Homo sapiens, UniProt Q96LD8).
T7 sequence (Q96LD8 whole entry): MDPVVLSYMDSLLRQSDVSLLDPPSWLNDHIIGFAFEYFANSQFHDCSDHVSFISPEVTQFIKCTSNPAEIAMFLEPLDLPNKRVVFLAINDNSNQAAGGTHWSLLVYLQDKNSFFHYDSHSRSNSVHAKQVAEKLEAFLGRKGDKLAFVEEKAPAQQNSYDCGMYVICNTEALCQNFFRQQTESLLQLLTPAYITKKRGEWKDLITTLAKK
It counts as functional.

The target of experiment [13] is T7, Sentrin-specific protease 8. It counts as functional. The source holds these as a separate data set.
Experiment [14] in a line: viability of uninfected HEp-2 cells – cell-based, HTS, cytotoxicity control for RSV inhibitor project, dose response (AID 2410). It counts as functional. The following applies: human respiratory syncytial virus.
A short description of experiment [15]: blockers of HIV-1 envelope-mediated cell-cell fusion – cherry-pick, dose response (AID 652057). It counts as functional, cell-based.
The nature of experiment [16]: viability loss in CEM21 cells – cell-based, CellTiter-Glo luminescence, cherry-picked, cytotoxicity control for viral fusion inhibitor project, dose response (AID 652042).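 Further: potency for signal decrease meaning cytotoxicity.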 It counts as functional. For orientation: Cellular ATP, detected with luciferase, serves as a proxy for viable cell number.
Experiment [17] can be described thus: off-target signal loss in HeLa-CEM21 co-culture – HeLa F-luc CTL cells, cherry-picked, counter-screen for HIV-1 Env fusion inhibitor project, dose response (AID 652040).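 Further: potency for signal decrease marking cytotoxic or nonspecific inhibition.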 It counts as functional, cell-based.
Experiment [18] can be described thus: HIV-1 AD8 envelope cell-cell fusion blockers – cherry-pick, dose response (AID 652062).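 Further: luciferase signal from cell-cell fusion driven by HIV-1 clade B AD8 Env; potency is for inhibitors of fusion seen as a drop in luminescence.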 It counts as functional, cell-based.
Experiment [19] concerns the target Luciferin 4-monooxygenase (Photinus pyralis, UniProt P08659). The experiment can be described thus: inhibition of purified Photinus pyralis luciferase – biochemical, luminescence, dose response (AID 1891).
The nature of experiment [20]: Luminescence Cell-Based Dose Confirmation HTS to Identify Inhibitors of Platelet Dense Granule Release. [Related pubchem assays: 1663 (Primary HTS), 1678 (Summary of Project)]. It counts as functional.
Experiment [21] is described as follows: blockers of HIV-1 ZM109 envelope-driven cell-cell fusion – HeLa effector, CEM target cells, luciferase, cherry-pick, dose response (AID 652058).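 Further: luciferase signal from HIV-1 Env mediated cell-cell fusion of effector and target cells.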 It counts as functional, cell-based.
The nature of experiment [22]: Trypanosoma cruzi growth suppression in host cells – NIH3T3 host cells, beta-gal luminescence, confirmation (AID 2044).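 Further: intracellular parasites grown in NIH/3T3 mouse fibroblasts as host cells; luminescent beta-galactosidase reporter signal from transgenic T. cruzi replicating inside host cells; inhibitors lower the luminescence signal.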 It counts as functional, cell-based.
Experiment [23] in a line: NIH3T3 cell viability loss – ATP luminescence, mouse fibroblasts, counter-screen, dose response (AID 2010).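 Further: cells exposed to compound for about 90 hours before reading.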 It counts as functional, cell-based.
Experiment [24] has as its target Heat shock protein HSP 90-alpha (Homo sapiens, UniProt P07900). It counts as functional, organism-based.
Experiment [25] deals with INS1. The experiment can be described thus: INS-1E survival protection against cytokine death – cell-based, luminescence, retest, dose response (AID 449756).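 Further: cell death triggered by IL-1 beta plus TNF-alpha plus IFN-gamma mixture; protective hits raise ATP signal compared with cytokine alone wells.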 It counts as functional. The following applies: Rattus norvegicus.

Structures are written as SMILES. The source made the active and inactive calls.
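Wherever IC50 Mean is given: confirmatory dose-response retesting of NadD inhibitor hits first found in an ultra-high-throughput screen.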

T2 sequence (P65502 whole entry): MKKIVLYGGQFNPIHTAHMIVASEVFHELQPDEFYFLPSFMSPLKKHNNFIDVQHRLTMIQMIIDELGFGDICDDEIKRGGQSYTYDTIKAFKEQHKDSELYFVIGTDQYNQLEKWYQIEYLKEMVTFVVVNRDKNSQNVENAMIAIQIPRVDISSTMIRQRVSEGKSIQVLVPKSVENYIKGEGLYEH
Luciferin 4-monooxygenase, sequence (P08659 whole entry): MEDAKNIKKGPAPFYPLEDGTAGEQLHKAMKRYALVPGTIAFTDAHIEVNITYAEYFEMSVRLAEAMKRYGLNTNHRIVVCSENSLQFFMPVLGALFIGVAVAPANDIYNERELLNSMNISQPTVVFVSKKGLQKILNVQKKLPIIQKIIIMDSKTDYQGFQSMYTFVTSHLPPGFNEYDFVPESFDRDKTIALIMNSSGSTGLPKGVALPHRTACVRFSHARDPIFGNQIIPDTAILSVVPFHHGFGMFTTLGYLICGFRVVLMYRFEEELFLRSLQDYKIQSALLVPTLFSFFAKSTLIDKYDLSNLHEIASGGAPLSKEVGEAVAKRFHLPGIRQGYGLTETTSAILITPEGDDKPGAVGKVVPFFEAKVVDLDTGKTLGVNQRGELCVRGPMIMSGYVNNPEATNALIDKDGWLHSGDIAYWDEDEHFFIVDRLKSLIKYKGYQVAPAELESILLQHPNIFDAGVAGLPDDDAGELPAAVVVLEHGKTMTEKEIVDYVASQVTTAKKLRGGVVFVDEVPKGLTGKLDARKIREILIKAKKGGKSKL
Phospholipase A2, sequence (P04054 whole entry): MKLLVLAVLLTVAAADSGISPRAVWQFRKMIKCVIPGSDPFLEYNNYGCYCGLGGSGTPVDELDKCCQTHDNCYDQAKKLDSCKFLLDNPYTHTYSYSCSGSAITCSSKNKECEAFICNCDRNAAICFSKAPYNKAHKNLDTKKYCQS

On to `CCCc1cc(=O)[nH]c(SCC(=O)N2N=C(c3ccc(Cl)cc3)CC2c2ccco2)n1` (stereo not drawn), for which the IC50 in experiment [1] was 20.5 µM (inactive); in experiment [2] it was 16.6 µM (active); in [3], 9.52 µM (active); in experiment [4] it was 52.9 µM (active).
With `Cn1c(N)c(C(=O)COC(=O)c2cnc(Cl)c(Cl)c2)c(=O)n(C)c1=O`, the IC50 is 10.1 µM (active) in experiment [5] and > 29.9 µM (inactive) in experiment [6]. Further, in experiment [7], the EC50 (usually the concentration needed to bring the measured effect to its halfway point) is > 29.9 µM (inactive).
For `CC(C)(C)C(=O)NC(=S)NNC(=O)c1ccc(Cl)cc1Cl`, the EC50 was 1.88 µM (active) in [8], 5.5 µM (active) in experiment [9] and > 29.9 µM (inactive) in experiment [7]. Also, the IC50 in experiment [6] was > 29.9 µM (inactive).
Turning to `Cc1cccn2c(=O)c3cc(C(=O)NCCN4CCOCC4)c(=N)n(CCCN4CCOCC4)c3nc12`, the AC50 (as a rule, the concentration at which the activity in the assay is half-maximal) in experiment [10] is 8.19 µM (active); in experiment [11], 4.63 µM (active).
Take `CCOC(=O)c1c(-c2ccccc2Cl)csc1NC(=O)CSc1nc(C)cc(=O)[nH]1`: the IC50 in [3] was 11.6 µM (active); in [4], 28.7 µM (active).
For the compound `COc1ccc(-c2nn(C)c3sc(C(=O)NCCN(C)C)cc23)cc1OC`, the figures for the AC50 in experiment [10] and in experiment [11] were 6.36 µM (active) and 2.35 µM (active), respectively.
On to `O=C(c1ncn(Cc2ccccc2)c1C(=O)N1CCc2ccccc2C1)N1CCc2ccccc2C1`, for which the values for the IC50 in [12] and in experiment [13] were > 100 µM (inactive) and 16 µM (active), respectively.
As for `Cc1n[nH]c2c1C1(C(=O)N(Cc3ccc(Cl)cc3)c3ccccc31)C(C#N)=C(N)O2` (stereo not drawn), the CC50 (commonly the concentration that lowers cell viability or growth by half) in experiment [14] was 25.1 µM (active). Moreover, the AC50 in experiment [15] was 3.62 µM (active); in experiment [16], 59.1 µM (active); in experiment [17], 55.2 µM (active); in [18] it was 39.6 µM (active).
On to `COc1cccc(C2c3c(-c4cc(Cl)c(C)cc4O)n[nH]c3C(=O)N2Cc2cccnc2)c1` (stereo not drawn), for which the EC50 in experiment [19] is > 112 µM (not active); in experiment [20] it was 41.2 µM (active). In addition, the IC50 was 21.5 µM (active) in experiment [3] and 46 µM (active) in [4].
For `CC1CC(=O)NN=C1c1ccc(NCCO)c([N+](=O)[O-])c1` (stereo not drawn), the EC50 is > 112 µM (not active) in experiment [19], < 0.088 µM (active) in experiment [20] and > 29.9 µM (inactive) in experiment [7]. Also, in [6], the IC50 is 0.367 µM (active).
Regarding `COc1cccc(-c2cnc3c(NC(C)=O)cc(-c4cccc(C(=O)NCCN(C)C)c4)cn23)c1`, the AC50 in [10] is 26.7 µM (active); in [11], 2.42 µM (active).
As for `CCCCCCCCN1C(=O)[C@H](CC(=O)N2CCCCC2)C[C@@]2(C(=O)OCC)CCCC=C12`, the AC50 in [15] was 8.73 µM (active); in [16], 37.2 µM (active); in [21], 13.9 µM (active); in experiment [17], > 70 µM (inactive); in experiment [18] it was 0.465 µM (active).
For `CN(C)c1ccc2c(c1)[C@@H]1C[C@H](CC(=O)NCc3ccc(-c4ccccc4)cc3)O[C@@H](CO)[C@@H]1O2`, the half-maximal activity concentration (AC50) in experiment [15] was < 0.26 µM (active); in experiment [16], 40.9 µM (active); in experiment [18], 2.51 µM (active).
Take `Cc1ccc(NC(=S)N/N=C/c2ccc([N+](=O)[O-])s2)cc1`: the EC50 is 1.34 µM (active) in [22] and 7.86 µM (active) in [23]. Also, the AC50 was 3.4 µM (active) in [24] and 6.72 µM (active) in [25]. The IC50 is 18.4 µM (active) in experiment [12] and 21.5 µM (active) in experiment [13].

Values taken from ChEMBL document CHEMBL1201862, “PubChem BioAssay data set” (2004).
